Experimental findings from patent publication US12187701B2, “Taire family kinase inhibitors and uses thereof” (Dana-Farber Cancer Institute, Inc., priority 2018, dated 2025) are described below.

The target of one assay is CDK16/CycY (Homo sapiens (Human), UniProt Q00536). Kind of assay: Lanthascreen Eu kinase binding assay for CDK16/CycY. Conditions: read-out: IC50 CDK16 Lanthascreen binding. Here is the method: Lanthascreen Eu kinase binding assays were conducted for CDK16/CycY at Life Technologies.
A further assay has as its target CDK2/CycA (Homo sapiens (Human), UniProt P24941). Put plainly: Z'LYTE kinase assay for CDK2/CycA at Km ATP. The class given is biochemical. Conditions: read-out: IC50 CDK2 Z′LYTE kinase assay.
For another assay, the system named is HCT116 cells. Put plainly: Antiproliferation assay, Cell Titer Glo, 72 hours. It is filed as cell-based. Here is the method: HCT116 cells were plated in 384-well plates at 750 cells/well in 50 ul fresh media (McCoy's 5A+10% FBS+1% Penn/Strep) and treated with 0.1 μl candidate compounds in four-fold dilution series using the Janus pinner. Cells were incubated with compounds for 72 hours in 37° C. 5% CO2. Anti-proliferative effects of these compounds were assessed 72 hours after compound addition using Cell Titer Glo (Promega cat #G7571) as described in product manual by luminescence measurements using an Envision platereader. All proliferation assays were performed in biological quadruplicate. IC50 values were determined using a non-linear regression curve fit in GraphPad Prism 6.

Another assay deals with Cdk14/CycY (Homo sapiens (Human), UniProt O94921). Put plainly: Lanthascreen Eu kinase binding assay for Cdk14/CycY with 30 minute pre-incubation. Conditions: 30 minute pre-incubation of kinase with compound; read-out: IC50 CDK14 binding by Lanthascreen. How it is done: Lanthascreen Eu kinase binding assays were conducted for Cdk14/CycY largely as performed in the commercial assay service by Life Technologies, but included a 30 minute pre-incubation step of the kinase with candidate compounds to facilitate covalent bond formation.

pIC50: −log10 of the molar value. Read-outs that look alike come from different tables or passages of the source. Where only a bound is given, the exact number is not on record here.

Chain of Cdk14/CycY (O94921 whole entry): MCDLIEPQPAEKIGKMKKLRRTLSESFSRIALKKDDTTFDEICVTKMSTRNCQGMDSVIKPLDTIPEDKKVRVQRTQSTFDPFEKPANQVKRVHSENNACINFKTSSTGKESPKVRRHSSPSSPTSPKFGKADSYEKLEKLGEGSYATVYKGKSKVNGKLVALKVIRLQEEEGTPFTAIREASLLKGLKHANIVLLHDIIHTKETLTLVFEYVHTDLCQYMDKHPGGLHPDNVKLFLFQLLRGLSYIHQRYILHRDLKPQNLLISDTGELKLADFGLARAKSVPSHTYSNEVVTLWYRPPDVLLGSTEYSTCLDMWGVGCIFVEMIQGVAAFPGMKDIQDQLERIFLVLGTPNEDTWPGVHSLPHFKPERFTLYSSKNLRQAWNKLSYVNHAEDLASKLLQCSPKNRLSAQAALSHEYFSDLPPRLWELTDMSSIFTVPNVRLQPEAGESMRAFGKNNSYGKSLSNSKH
Chain of Cdk14/CycY (Q8ND76 whole entry partner): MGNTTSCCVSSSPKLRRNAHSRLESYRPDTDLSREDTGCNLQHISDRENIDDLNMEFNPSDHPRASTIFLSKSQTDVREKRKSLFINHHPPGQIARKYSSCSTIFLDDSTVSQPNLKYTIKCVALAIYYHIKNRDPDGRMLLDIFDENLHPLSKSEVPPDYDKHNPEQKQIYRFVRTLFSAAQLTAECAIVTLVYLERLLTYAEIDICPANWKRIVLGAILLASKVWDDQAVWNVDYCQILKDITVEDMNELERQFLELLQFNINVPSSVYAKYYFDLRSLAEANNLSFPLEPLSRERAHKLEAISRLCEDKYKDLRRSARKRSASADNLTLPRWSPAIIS
Chain of CDK16/CycY (Q00536 whole entry): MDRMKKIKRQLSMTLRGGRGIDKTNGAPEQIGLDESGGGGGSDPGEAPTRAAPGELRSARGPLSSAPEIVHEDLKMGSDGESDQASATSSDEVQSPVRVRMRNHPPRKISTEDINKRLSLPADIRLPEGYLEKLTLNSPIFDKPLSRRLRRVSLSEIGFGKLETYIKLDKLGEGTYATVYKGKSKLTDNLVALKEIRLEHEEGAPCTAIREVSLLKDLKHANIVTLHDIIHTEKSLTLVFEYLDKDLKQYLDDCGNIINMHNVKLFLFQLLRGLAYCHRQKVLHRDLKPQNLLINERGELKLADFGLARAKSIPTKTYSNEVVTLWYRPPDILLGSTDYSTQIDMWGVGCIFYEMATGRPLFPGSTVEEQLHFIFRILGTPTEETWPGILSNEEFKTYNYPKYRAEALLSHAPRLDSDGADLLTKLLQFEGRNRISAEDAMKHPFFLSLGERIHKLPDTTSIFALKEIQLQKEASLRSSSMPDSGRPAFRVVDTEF
Chain of CDK16/CycY (Q8ND76 whole entry partner): as the sequence (Q8ND76 whole entry partner) above

Regarding `CN(C)C/C=C/C(=O)Nc1cccc(S(=O)(=O)N2CCC(NC(=O)c3n[nH]cc3NC(=O)c3c(Cl)cccc3Cl)CC2)c1` [FMF-03-198-2, (E)-4-(2,6-dichlorobenzamido)-N-(1-((3-(4-(dimethylamino)but-2-enamido)phenyl)sulfonyl)piperidin-4-yl)-1H-pyrazole-3-carboxamide], the pIC50 at CDK16/CycY and on CDK2/CycA was 9.05 throughout.

For `CN(C)C/C=C/C(=O)Nc1cccc(CN2CCC(NC(=O)c3n[nH]cc3NC(=O)c3c(Cl)cccc3Cl)CC2)c1` [FMF-03-200-2], the pIC50 at CDK16/CycY is 7.99; in the assay with HCT116 cells it was 8.68; in the assay on HCT116 cells (Homo sapiens, HCT-116, 72 h) it was 8.66; on CDK2/CycA, 7.59.

As for `CCC(=O)Nc1cccc(S(=O)(=O)N2CCC(NC(=O)c3n[nH]cc3NC(=O)c3c(Cl)cccc3Cl)CC2)c1` [FMF-04-060-1, 4-(2,6-dichlorobenzamido)-N-(1-((3-propionamidophenyl)sulfonyl)piperidin-4-yl)-1H-pyrazole-3-carboxamide], the pIC50 on CDK16/CycY is 8.64; with HCT116 cells (Homo sapiens, HCT-116, 72 h) it was 7.12; on CDK2/CycA, 8.52.

With `C=CC(=O)Nc1ccc(S(=O)(=O)N2CC[C@@H](NC(=O)c3n[nH]cc3NC(=O)c3c(Cl)cccc3Cl)C2)cc1` [FMF-05-066-1, (R)—N-(1-((4-acrylamidophenyl)sulfonyl)pyrrolidin-3-yl)-4-(2,6-dichlorobenzamido)-1H-pyrazole-3-carboxamide], the negative-log IC50 (pIC50) was 5.52 in the assay with HCT116 cells (Homo sapiens, HCT-116, 72 h) and under 5.00 at Cdk14/CycY.

For the compound `C=CC(=O)Nc1cccc(S(=O)(=O)N2CC[C@H](NC(=O)c3n[nH]cc3NC(=O)c3c(Cl)cccc3Cl)C2)c1` [FMF-05-068-1, (S)—N-(1-((3-acrylamidophenyl)sulfonyl)pyrrolidin-3-yl)-4-(2,6-dichlorobenzamido)-1H-pyrazole-3-carboxamide], the pIC50 in the assay with HCT116 cells (Homo sapiens, HCT-116, 72 h) is 5.21; at Cdk14/CycY, 6.35.

On to `CN(C)C/C=C/C(=O)Nc1cccc(S(=O)(=O)N2CC[C@H](NC(=O)c3n[nH]cc3NC(=O)c3c(Cl)cccc3Cl)C2)c1` [FMF-05-068-2, (S,E)-4-(2,6-dichlorobenzamido)-N-(1-((3-(4-(dimethylamino)but-2-enamido)phenyl)sulfonyl)pyrrolidin-3-yl)-1H-pyrazole-3-carboxamide], for which the negative-log IC50 (pIC50) in the assay on HCT116 cells (Homo sapiens, HCT-116, 72 h) was under 5.00; on Cdk14/CycY, 6.51.

Turning to `C=CC(=O)Nc1cccc(CN2CC[C@H](NC(=O)c3n[nH]cc3NC(=O)c3c(Cl)cccc3Cl)C2)c1` [FMF-05-069-1, (S)—N-(1-(3-acrylamidobenzyl)pyrrolidin-3-yl)-4-(2,6-dichlorobenzamido)-1H-pyrazole-3-carboxamide], the pIC50 is 7.57 in the assay on HCT116 cells (Homo sapiens, HCT-116, 72 h) and 6.82 on Cdk14/CycY.

In the case of `C=CC(=O)Nc1ccc(CN2CC[C@H](NC(=O)c3n[nH]cc3NC(=O)c3c(Cl)cccc3Cl)C2)cc1` [FMF-05-070-1, (S)—N-(1-(4-acrylamidobenzyl)pyrrolidin-3-yl)-4-(2,6-dichlorobenzamido)-1H-pyrazole-3-carboxamide], the pIC50 in the assay on HCT116 cells (Homo sapiens, HCT-116, 72 h) is 7.51; on Cdk14/CycY, 6.24.

As for `C=CC(=O)Nc1cccc(CN2CC[C@@H](NC(=O)c3n[nH]cc3NC(=O)c3c(Cl)cccc3Cl)C2)c1` [FMF-05-071-1, (R)—N-(1-(3-acrylamidobenzyl)pyrrolidin-3-yl)-4-(2,6-dichlorobenzamido)-1H-pyrazole-3-carboxamide], the negative-log IC50 (pIC50) is over 9.00 in the assay with HCT116 cells (Homo sapiens, HCT-116, 72 h) and 6.55 at Cdk14/CycY.

Consider `C=CC(=O)Nc1ccc(CN2CC[C@@H](NC(=O)c3n[nH]cc3NC(=O)c3c(Cl)cccc3Cl)C2)cc1` [FMF-05-072-1, (R)—N-(1-(4-acrylamidobenzyl)pyrrolidin-3-yl)-4-(2,6-dichlorobenzamido)-1H-pyrazole-3-carboxamide], for which the pIC50 in the assay on HCT116 cells (Homo sapiens, HCT-116, 72 h) is over 9.00; on Cdk14/CycY it was 6.59.

On to `C=CC(=O)Nc1ccc(N2CCC(NC(=O)c3n[nH]cc3NC(=O)c3c(Cl)cccc3Cl)CC2)cc1` [FMF-05-073-1, N-(1-(4-acrylamidophenyl)piperidin-4-yl)-4-(2,6-dichlorobenzamido)-1H-pyrazole-3-carboxamide], for which the pIC50 in the assay with HCT116 cells (Homo sapiens, HCT-116, 72 h) is 7.52; on Cdk14/CycY, 6.81.

On to `C=CC(=O)Nc1ccc(N2CC[C@H](NC(=O)c3n[nH]cc3NC(=O)c3c(Cl)cccc3Cl)C2)cc1` [FMF-05-074-1, (S)—N-(1-(4-acrylamidophenyl)pyrrolidin-3-yl)-4-(2,6-dichlorobenzamido)-1H-pyrazole-3-carboxamide], for which the negative-log IC50 (pIC50) in the assay with HCT116 cells (Homo sapiens, HCT-116, 72 h) was 5.54; on Cdk14/CycY, 5.92.

In the case of `CN(C)C/C=C/C(=O)Nc1ccc(N2CC[C@H](NC(=O)c3n[nH]cc3NC(=O)c3c(Cl)cccc3Cl)C2)cc1` [FMF-05-074-2, (S,E)-4-(2,6-dichlorobenzamido)-N-(1-(4-(4-(dimethylamino)but-2-enamido)phenyl)pyrrolidin-3-yl)-1H-pyrazole-3-carboxamide], the negative-log IC50 (pIC50) in the assay with HCT116 cells (Homo sapiens, HCT-116, 72 h) was under 5.00; on Cdk14/CycY, 6.94.

Take `C=CC(=O)Nc1ccc(N2CC[C@@H](NC(=O)c3n[nH]cc3NC(=O)c3c(Cl)cccc3Cl)C2)cc1` [FMF-05-075-1, (R)—N-(1-(4-acrylamidophenyl)pyrrolidin-3-yl)-4-(2,6-dichlorobenzamido)-1H-pyrazole-3-carboxamide]: the pIC50 is 7.19 with HCT116 cells (Homo sapiens, HCT-116, 72 h) and 6.57 at Cdk14/CycY.

Turning to `CN(C)C/C=C/C(=O)Nc1ccc(N2CC[C@@H](NC(=O)c3n[nH]cc3NC(=O)c3c(Cl)cccc3Cl)C2)cc1` [FMF-05-075-2, (R,E)-4-(2,6-dichlorobenzamido)-N-(1-(4-(4-(dimethylamino)but-2-enamido)phenyl)pyrrolidin-3-yl)-1H-pyrazole-3-carboxamide], the pIC50 was 6.15 with HCT116 cells (Homo sapiens, HCT-116, 72 h) and 6.13 at Cdk14/CycY.

Turning to `CN(C)C/C=C/C(=O)Nc1ccc(S(=O)(=O)N2CC[C@H](NC(=O)c3n[nH]cc3NC(=O)c3c(Cl)cccc3Cl)C2)cc1` [FMF-05-084-2, (S,E)-4-(2,6-dichlorobenzamido)-N-(1-((4-(4-(dimethylamino)but-2-enamido)phenyl)sulfonyl)pyrrolidin-3-yl)-1H-pyrazole-3-carboxamide], the negative logarithm of the IC50 (pIC50) was under 5.00 with HCT116 cells (Homo sapiens, HCT-116, 72 h) and 7.39 on Cdk14/CycY.

As for `CN(C)C/C=C/C(=O)Nc1cccc(N2CC[C@H](NC(=O)c3n[nH]cc3NC(=O)c3c(Cl)cccc3Cl)C2)c1` [FMF-05-086-2, (S,E)-4-(2,6-dichlorobenzamido)-N-(1-(3-(4-(dimethylamino)but-2-enamido)phenyl)pyrrolidin-3-yl)-1H-pyrazole-3-carboxamide], the negative-log IC50 (pIC50) is under 5.00 in the assay with HCT116 cells (Homo sapiens, HCT-116, 72 h) and 6.66 at Cdk14/CycY.

Consider `C=CC(=O)Nc1cccc(N2CC[C@@H](NC(=O)c3n[nH]cc3NC(=O)c3c(Cl)cccc3Cl)C2)c1` [FMF-05-087-1, (R)—N-(1-(3-acrylamidophenyl)pyrrolidin-3-yl)-4-(2,6-dichlorobenzamido)-1H-pyrazole-3-carboxamide], for which the figures for the pIC50 in the assay with HCT116 cells and on Cdk14/CycY were 7.66 and 5.96, respectively.

On to `CN(C)C/C=C/C(=O)Nc1cccc(N2CC[C@@H](NC(=O)c3n[nH]cc3NC(=O)c3c(Cl)cccc3Cl)C2)c1` [FMF-05-087-2, (R,E)-4-(2,6-dichlorobenzamido)-N-(1-(3-(4-(dimethylamino)but-2-enamido)phenyl)pyrrolidin-3-yl)-1H-pyrazole-3-carboxamide], for which the pIC50 with HCT116 cells (Homo sapiens, HCT-116, 72 h) is 6.91; at Cdk14/CycY, 5.89.
